Here are results for 24 compounds from patent US20220047569A1, “METHOD AND COMPOUND FOR USE, IN TREATING AND/OR PREVENTING NETOSIS” (Jubilant EpiPad LLC, priority 2020, published 2022).

This test has as its system Histone H3 Citrullination in Neutrophils. The test is described as follows: Citrullination ELISA (Citrullinated Histone H3) in calcium ionophore stimulated neutrophils. The class given is cell-based. The following applies: Neutrophil; human neutrophils, 25 μM calcium ionophore, CitH3 ELISA. An outline of the steps: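 Freshly isolated human donor neutrophils in RPMI with 2% BSA and 1 mM CaCl2 were pre-incubated 30 min with compound (10, 1, 0.1 μM), then stimulated 30 min with 25 μM calcium ionophore. After S7 nuclease digestion, lysates were assayed by citrullinated histone H3 ELISA (450 nm); IC50 from sigmoidal fits.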
For orientation: ELISA stands for enzyme-linked immunosorbent assay.
Usually IC50 stands for the point on the concentration scale where inhibition reaches its midpoint. With `COc1ccc2c(c1)cc(-c1nc3cc(C(=O)N4CCC[C@@H](N)C4)cc4c3n1CCO4)n2CC1CC1` [Compound 146, (R)-(3-aminopiperidin-1-yl)(2-(1-(cyclopropylmethyl)-5-methoxy-1H-indol-2-yl)-3,4-dihydro-5-oxa-1,2a-diazaacenaphthylen-7-yl)methanone], the IC50 was 100 to 1000 nM. Take `N[C@@H]1CCCN(C(=O)c2cc3c4c(c2)nc(-c2cc5ccccc5n2CC2CC2)n4CCN3)C1` [Compound 149, (R)-(3-aminopiperidin-1-yl)(2-(1-(cyclopropylmethyl)-1H-indol-2-yl)-5,6-dihydro-4H-imidazo[1,5,4-de]quinoxalin-8-yl)methanone]: the half-maximal inhibitory concentration (IC50) lay within 100 to 1000 nM. `N[C@@H]1CCCN(C(=O)c2cc3c4c(c2)nc(-c2cc5ccccc5n2Cc2ccccc2)n4CCO3)C1` [Compound 104, (R)-(3-aminopiperidin-1-yl)(2-(1-benzyl-1H-indol-2-yl)-3,4-dihydro-5-oxa-1,2a-diazaacenaphthylen-7-yl)methanone]: the IC50 was 100 to 1000 nM. For the compound `Cc1c(-c2cc3cc(F)ccc3n2Cc2ccncc2)nc2cc(C(=O)N3CCC[C@@H](N)C3)ccn12` [Compound 74, (R)-(3-aminopiperidin-1-yl)(2-(5-fluoro-1-(pyridin-4-ylmethyl)-1H-indol-2-yl)-3-methylimidazo[1,2-a]pyridin-7-yl)methanone], the IC50 is over 1000 nM.

As for `COc1ccc(Cn2c(-c3nc4cc(C(=O)N5CCC[C@@H](N)C5)cc5c4n3CCO5)cc3cc(F)ccc32)cc1` [Compound 132, (R)-(3-aminopiperidin-1-yl)(2-(5-fluoro-1-(4-methoxybenzyl)-1H-indol-2-yl)-3,4-dihydro-5-oxa-1,2a-diazaacenaphthylen-7-yl)methanone], the IC50 is over 1000 nM.

For the compound `COc1ccc(Cn2c(-c3nc4cc(C(=O)N5CCC[C@@H](N)C5)ccn4c3C)cc3cc(F)ccc32)cc1` [Compound 75, (R)-(3-aminopiperidin-1-yl)(2-(5-fluoro-1-(4-methoxybenzyl)-1H-indol-2-yl)-3-methylimidazo[1,2-a]pyridin-7-yl)methanone], the IC50 lay within 100 to 1000 nM. On to `COc1ccc(Cn2c(-c3nc4cc(C(=O)N5CCC[C@@H](N)C5)ccn4c3C)cc3ccccc32)cc1` [Compound 12, (R)-(3-aminopiperidin-1-yl)(2-(1-(4-methoxybenzyl)-1H-indol-2-yl)-3-methylimidazo[1,2-a]pyridin-7-yl)methanone], for which the half-maximal inhibitory concentration (IC50) was under 100 nM. Regarding `CN1CCn2c(-c3cc4cc(F)ccc4n3CC3CC3)nc3cc(C(=O)N4CCC[C@@H](N)C4)cc1c32` [Compound 161, (R)-(3-aminopiperidin-1-yl)(2-(1-(cyclopropylmethyl)-5-fluoro-1H-indol-2-yl)-6-methyl-5,6-dihydro-4H-imidazo[1,5,4-de]quinoxalin-8-yl)methanone], the half-maximal inhibitory concentration (IC50) is under 100 nM. Take `Cc1c(-c2cc3ccccc3n2CC(C)C)nc2cc(C(=O)N3CCC[C@@H](N)C3)ccn12` [Compound 60, (R)-(3-aminopiperidin-1-yl)(2-(1-isobutyl-1H-indol-2-yl)-3-methylimidazo[1,2-a]pyridin-7-yl)methanone]: the IC50 is over 1000 nM.

As for `N[C@@H]1CCCN(C(=O)c2cc3c4c(c2)nc(-c2cc5ccccc5n2Cc2ccccc2F)n4CCN3)C1` [Compound 156, (R)-(3-aminopiperidin-1-yl)(2-(1-(2-fluorobenzyl)-1H-indol-2-yl)-5,6-dihydro-4H-imidazo[1,5,4-de]quinoxalin-8-yl)methanone], the IC50 was under 100 nM. Under `Cc1c(-c2cc3cc(F)ccc3n2Cc2ccc(F)cc2)nc2cc(C(=O)N3CCC[C@@H](N)C3)ccn12` [Compound 76, (R)-(3-aminopiperidin-1-yl)(2-(5-fluoro-1-(4-fluorobenzyl)-1H-indol-2-yl)-3-methylimidazo[1,2-a]pyridin-7-yl)methanone] stands over 1000 nM.

With `Cc1c(-c2cc3ccccc3n2Cc2ccoc2)nc2cc(C(=O)N3CCC[C@@H](N)C3)ccn12` [Compound 37, (R)-(3-aminopiperidin-1-yl)(2-(1-(furan-3-ylmethyl)-1H-indol-2-yl)-3-methylimidazo[1,2-a]pyridin-7-yl)methanone], the IC50 was under 100 nM.

Regarding `CC(C)Cn1c(-c2nc3cc(C(=O)N4CCC[C@@H](N)C4)cc4c3n2CCO4)cc2cccc(Cl)c21` [Compound 141, (R)-(3-aminopiperidin-1-yl)(2-(7-chloro-1-isobutyl-1H-indol-2-yl)-3,4-dihydro-5-oxa-1,2a-diazaacenaphthylen-7-yl)methanone], the IC50 is over 1000 nM. As for `Cc1c(-c2cc3ccccc3n2Cc2ccc(F)cn2)nc2cc(C(=O)N3CCC[C@@H](N)C3)ccn12` [Compound 79, (R)-(3-aminopiperidin-1-yl)(2-(1-((5-fluoropyridin-2-yl)methyl)-1H-indol-2-yl)-3-methylimidazo[1,2-a]pyridin-7-yl)methanone], the figure is over 1000 nM; as for `Cc1c(-c2cc3ccccc3n2Cc2ccc(F)cc2)nc2cc(C(=S)N3CCC[C@@H](N)C3)ccn12` [Compound 45, (R)-(3-aminopiperidin-1-yl)(2-(1-(4-fluorobenzyl)-1H-indol-2-yl)-3-methylimidazo[1,2-a]pyridin-7-yl)methanethione], under 100 nM.

In the case of `COc1cccc(Cn2c(-c3nc4cc(C(=O)N5CCC[C@@H](N)C5)ccn4c3C)cc3ccc(F)cc32)c1` [Compound 70, (R)-(3-aminopiperidin-1-yl)(2-(6-fluoro-1-(3-methoxybenzyl)-1H-indol-2-yl)-3-methylimidazo[1,2-a]pyridin-7-yl)methanone], the concentration for half-maximal inhibition (IC50) was under 100 nM. `N[C@@H]1CCCN(C(=O)c2cc3c4c(c2)nc(-c2cc5cc(F)ccc5n2CC2CC2)n4CCN3)C1` [Compound 150, (R)-(3-aminopiperidin-1-yl)(2-(1-(cyclopropylmethyl)-5-fluoro-1H-indol-2-yl)-5,6-dihydro-4H-imidazo[1,5,4-de]quinoxalin-8-yl)methanone]: the IC50 was in the range of 100 to 1000 nM. Regarding `N[C@@H]1CCCN(C(=O)c2cc3c4c(c2)nc(-c2cc5ccccc5n2Cc2ncccn2)n4CCO3)C1` [Compound 113, (R)-(3-aminopiperidin-1-yl)(2-(1-(pyrimidin-2-ylmethyl)-1H-indol-2-yl)-3,4-dihydro-5-oxa-1,2a-diazaacenaphthylen-7-yl)methanone], the IC50 was under 100 nM. `N[C@@H]1CCCN(C(=O)c2cc3c4c(c2)nc(-c2cc5ccccc5n2Cc2ccccc2F)n4CCO3)C1` [Compound 100, (R)-(3-aminopiperidin-1-yl)(2-(1-(2-fluorobenzyl)-1H-indol-2-yl)-3,4-dihydro-5-oxa-1,2a-diazaacenaphthylen-7-yl)methanone]: the IC50 was under 100 nM.

Regarding `N[C@@H]1CCCN(C(=O)c2cc3c4c(c2)nc(-c2cc5c(F)cccc5n2CC2CC2)n4CCN3)C1` [Compound 166, (R)-(3-aminopiperidin-1-yl)(2-(1-(cyclopropylmethyl)-4-fluoro-1H-indol-2-yl)-5,6-dihydro-4H-imidazo[1,5,4-de]quinoxalin-8-yl)methanone], the 50% inhibitory concentration (IC50) fell in the range of 100 to 1000 nM.

Consider `CC(=O)N1CCn2c(-c3cc4ccccc4n3CC3CC3)nc3cc(C(=O)N4CCC[C@@H](N)C4)cc1c32` [Compound 171, (R)-1-(8-(3-aminopiperidine-1-carbonyl)-2-(1-(cyclopropylmethyl)-1H-indol-2-yl)-4,5-dihydro-6H-imidazo[1,5,4-de]quinoxalin-6-yl)ethan-1-one], for which the IC50 was under 100 nM. Take `N[C@@H]1CCCN(C(=O)c2cc3c4c(c2)nc(-c2cc5cc(F)ccc5n2CC2CC2)n4CCO3)C1` [Compound 95, (R)-(3-aminopiperidin-1-yl)(2-(1-(cyclopropylmethyl)-5-fluoro-1H-indol-2-yl)-3,4-dihydro-5-oxa-1,2a-diazaacenaphthylen-7-yl)methanone]: the 50% inhibitory concentration (IC50) was under 100 nM.

Consider `N[C@@H]1CCCN(C(=O)c2cc3c4c(c2)nc(-c2cc5ccccc5n2Cc2cccnc2)n4CCN3)C1` [Compound 152, (R)-(3-aminopiperidin-1-yl)(2-(1-(pyridin-3-ylmethyl)-1H-indol-2-yl)-5,6-dihydro-4H-imidazo[1,5,4-de]quinoxalin-8-yl)methanone], for which the IC50 was under 100 nM. Under `Cc1c(-c2cc3ccc(F)cc3n2Cc2cccnc2)nc2cc(C(=O)N3CCC[C@@H](N)C3)ccn12` [Compound 69, (R)-(3-aminopiperidin-1-yl)(2-(6-fluoro-1-(pyridin-3-ylmethyl)-1H-indol-2-yl)-3-methylimidazo[1,2-a]pyridin-7-yl)methanone] stands 100 to 1000 nM.
